Experimental data reported in US11413296B2, “Viscous budesonide for the treatment of inflammatory diseases of the gastrointestinal tract” (The Regents of the University of California, priority 2005, dated 2022).
Where two headings read alike, the source gives them in different places.

Test system: children with EE
Assay type: in vivo, human
Text: Patient 1 was a person with a history of abdominal pain, failure to thrive, and vomiting since infancy, and developmental delay with isolated EE diagnosed in 2001. Their allergic history was significant for allergic rhinitis secondary to cat, dog, and dust mite exposure as well as positive Pharmacia CAP radioallergosorbent testing for fish and milk. […] They were referred to Children's Hospital Eosinophilic Gastrointestinal Disorders clinic for further management of EE recalcitrant to usual therapy. At the time of their referral, they continued to have vomiting and poor weight gain and their parent reported significant difficulty with the puff and swallow technique. They were placed on a regimen of twice daily oral budesonide suspension (Pulmicort®) 500 micrograms (4 ml) mixed with about 10 packets (1 gram each) sucralose (Splenda®), a non-absorbed sugar in order to increase fluid viscosity to be swallowed twice daily. The total volume of the preparation was about 7 to 8 ml. […] Eight am cortisol was 13.2 mcg/dL (normal range for age 3-15 mcg/dL) after four months of therapy.
Patient 2 was a child with a history of developmental delay, abdominal pain, and RAST positivity for milk, egg, and wheat. […] They were placed on a hydrolyzed formula containing milk protein (Peptamen Jr®), omeprazole 10 mg twice daily and oral cromolyn (Gastrocrom®) 100 mg four times daily. […] They were referred to the Children's Hospital Eosinophilic Gastrointestinal Disorders clinic for further management. […] After two months of elemental formula and oral cromolyn sodium, EGD was unchanged with a pale, furrowed esophagus and maximal eosinophil counts of 100, 90, and 70 per hpf in the distal, mid, and proximal esophagus with diffuse basal zone hyperplasia. Their developmental delay precluded the use of a fluticasone inhaler devise with puff and swallow technique. As an alternative, they received oral budesonide 500 micrograms (Pulmicort®) mixed with sucralose (Splenda®) twice daily as topical esophageal therapy.

[1] = Patient 2, elemental formula and oral cromolyn sodium, two months
[2] = Patient 2, hydrolyzed formula, omeprazole and oral cromolyn 100 mg four times daily, 12 months

With CCCC1O[C@@H]2C[C@H]3[C@@H]4CCC5=CC(=O)C=C[C@]5(C)[C@H]4[C@@H](O)C[C@]3(C)[C@]2(C(=O)CO)O1 (stereo partly drawn) [budesonide, 16,17-(butylidenebis(oxy))-11,21-dihydroxy-, (11-β,16-α)-pregna-1,4-diene-3,20-dione] the “maximum eosinophil count, proximal esophagus” value (Patient 2 (70 before), oral budesonide 500 micrograms mixed with sucralose twice daily, 3 months) was 5 per hpf, the “maximum eosinophil count, mid esophagus” value (Patient 2 (90 before), oral budesonide 500 micrograms mixed with sucralose twice daily, 3 months) was 20 per hpf and the “maximum eosinophil count, distal esophagus” value (Patient 2 (100 before), oral budesonide 500 micrograms (Pulmicort) mixed with sucralose twice daily, 3 months) was 28 per hpf.

O=C(O)c1cc(=O)c2c(OCC(O)COc3cccc4oc(C(=O)O)cc(=O)c34)cccc2o1 [cromolyn] was tested, and the “maximum eosinophil count, distal esophagus” value (Patient 2 (40 per hpf before), hydrolyzed formula (Peptamen Jr), omeprazole 10 mg twice daily and oral cromolyn 100 mg four times daily, 12 months) was 94 per hpf, the “maximal eosinophil count, distal esophagus” value [1] was 100 per hpf and the “maximal eosinophil count, mid esophagus” value [1] was 90 per hpf. For the same molecule, the “maximal eosinophil count, proximal esophagus” value [1] was 70 per hpf, the “maximum eosinophil count, mid esophagus” value [2] was 65 per hpf and the “maximum eosinophil count, proximal esophagus” value [2] was 90 per hpf.

CCC(=O)O[C@]1(C(=O)SCF)[C@H](C)C[C@H]2[C@@H]3C[C@H](F)C4=CC(=O)C=C[C@]4(C)[C@@]3(F)[C@@H](O)C[C@@]21C [fluticasone] gave a maximal eosinophil count (Patient 1, elemental formula and fluticasone, accompanied by basal zone hyperplasia) of 74 per hpf and a maximum eosinophil count (Patient 1, omeprazole 10 mg twice daily and fluticasone 220 ug twice daily, after 6 months) of 50 per hpf.

For C[C@]12C=CC(=O)C=C1CC[C@@H]1[C@@H]2C(=O)C[C@@]2(C)[C@H]1CC[C@]2(O)C(=O)CO [prednisone], the “maximum eosinophils per hpf on repeat EGD with biopsy” value (Patient 1 (EE, 60 per hpf at diagnosis), oral prednisone 0.5 mg per kg daily for one month) was 2 per hpf.
